The structures appear in SMILES notation.

The nature of the data set: gradient 5% acetonitrile 3 min, to 50% in 2 min, to 85% in 15 min, held 3 min, 100 µL/min. The settings on record: column: Zorbax Extend-C18 2.1 x 50 mm; eluents: water / acetonitrile, 0.1% formic acid. An outline of the steps: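 Data were gathered over 3 months by HPLC coupled to a quadrupole time-of-flight mass spectrometer, operated in positive and negative ionization mode. Mixtures of ~100 pure standards ran on a Zorbax Extend-C18 column (2.1 × 50 mm, 1.8 μm) at 100 μL/min, with water and acetonitrile each containing 0.1% formic acid and dead and dwell volumes of 40 μL and 900 μL. Retention time was read from adduct peaks picked by computer and checked manually.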
In the case of `COc1cccc(NC(=O)C2CCN(S(=O)(=O)c3ccc4c(c3)sc(=O)n4C)CC2)c1`, the RP-LC retention time amounted to 845 s.
The value for `O=C(Cn1c(=O)n(-c2ccccc2)c2ncccc21)N1CCN(c2ccccn2)CC1` was 596 s; that for `CCOc1ccc(NC(=O)N2CCC(N(C)C(C)C)CC2)cc1` was 588 s; that for `COc1ccccc1-c1noc(Cn2ncn3nc(-c4ccc(F)cc4)cc3c2=O)n1` was 996 s.
The value for `CCC(=O)N1CCc2cc(C(=O)N3CCOCC3)ccc21` was 637 s; that for `O=C(c1ccc(Cl)cc1)N1CCN(c2ccc([N+](=O)[O-])c3ncccc23)CC1` was 957 s.
The value for `CNC(=O)c1nc(C(C)(C)NC(=O)c2cnccn2)nc2c1OCO2` was 631 s; that for `O=C(NC1CCCCC1)C1CCN(c2ncccc2-c2nc(-c3ccc(Cl)cc3)no2)CC1` was 1230 s.
Molecule `Nc1cc(C2CCN(C(=O)COc3ccc(F)cc3)CC2)no1` displayed an RP-LC retention time of 656 s.
The molecule `COc1ccc(CC(=O)Nc2ccc3c(c2)Sc2ncccc2C(=O)N3C(C)C)cc1` came in with an RP-LC retention time of 844 s.
The result for `CN(C)c1ccc(/C=C2\SC(=O)N(CC(=O)Nc3ccccc3C(F)(F)F)C2=O)cc1` reads 992 s; that for `Cc1ccc(Cl)cc1N1CCN(C(=O)C2CCN(S(=O)(=O)c3cn(C(C)C)cn3)CC2)CC1`, 964 s; that for `Cc1cc(-c2nnc(-c3ccccc3)o2)c(C)n1CC(=O)Nc1ccc2c(c1)OCO2`, 596 s.
The value for `CCCCN1CCN(C(=O)C2c3ccccc3CCN2C(C)=O)CC1` (centres undefined) was 585 s.
The result for `CCc1nc(-c2cccc(-c3noc(COc4ccc(OC)cc4)n3)c2)cs1` reads 1270 s.
`CC(C)CN1CCN(C(=O)c2ccc3[nH]c4c(c3c2)CN(C(=O)C2CCC2)CC4)CC1` returned an RP-LC retention time of 621 s.
The value for `CC(C)c1ccc(C(=O)N2CCc3c(c(-c4nc(C5CC5)no4)nn3C)C2)cc1` was 971 s.
The value for `CC(C)CCn1nc2c(S(=O)(=O)N3CCCCC3)cccn2c1=O` was 906 s; that for `O=C1C(Nc2ccccc2)=CC(=O)c2ncccc21` was 734 s.
The result for `Cc1ccc(C)c(N2CCN(C(=O)c3ccc4c(c3)CCN4C(=O)C3CC3)CC2)c1` reads 1070 s; that for `O=c1c2cc(-c3ccc(F)cc3)nn2cnn1Cc1nc(-c2ccccc2Cl)no1`, 1110 s; that for `Cc1ccc(NC(=O)Cn2nc3cc(-c4ccccc4)nc(C)n3c2=O)cc1F`, 976 s.
`Cc1ccc2[nH]c(C(=O)NC3CC3)c(N3CCCC3=O)c2c1` showed an RP-LC retention time of 707 s.
As for `COc1ccc(C2(C(=O)N3CCC(Cc4nc(-c5ccccc5)no4)CC3)CC2)cc1`, the RP-LC retention time was found to be 1050 s.
The value for `Cc1c(C(=O)N2CCC(C(=O)N3CC=C(c4ccccc4)CC3)CC2)sc2nc[nH]c(=O)c12` was 728 s.
The value for `CCc1ccccc1NC(=O)C1CCCN(S(=O)(=O)c2cc(-c3noc(C)n3)cs2)C1` (centres undefined) was 974 s; that for `c1csc(CN2CCC(c3nc(-c4cnccn4)n[nH]3)CC2)c1` was 555 s.
The result for `CCOC(=O)c1noc2ncnc(Nc3cc(F)ccc3F)c12` reads 799 s; that for `O=C(NCC1CCCO1)C1CCN(c2ncnc3c2oc2ccccc23)CC1` (centres undefined), 618 s; that for `COc1cccc(C2C(C(=O)NCCC(C)C)c3ccccc3C(=O)N2C2CC2)c1` (centres undefined), 838 s.
On to `CCCN(CC(=O)N1CCc2sccc2C1COc1ccccc1OC)C(=O)COC` (centres undefined), for which the RP-LC retention time turned out to be 800 s.
For the molecule `CC(C(=O)N1CCN(Cc2ccc3c(c2)OCO3)CC1)n1c2ccccc2c2cnn(C)c(=O)c21` (centres undefined), the RP-LC retention time stood at 669 s.
The result for `CC(C)NC(=O)c1ccccc1OCC1CCN(C(=O)c2cc(F)cc(F)c2)CC1` reads 927 s.
The result for `Cc1cccc(NC(=O)Cn2c(=O)nc(N3CCC(C)CC3)c3ccccc32)c1C` reads 909 s; that for `O=C(C1CCC(=O)N1S(=O)(=O)c1ccccc1)N1CCN(C2CCCCC2)CC1` (centres undefined), 619 s.
The value for `Cc1[nH]c(C(=O)NCc2ccccc2Cl)c(C)c1S(=O)(=O)N1CCCC1` was 866 s; that for `CCOC(=O)N1CCN(C(=O)CSc2ccc(-n3cccn3)nn2)CC1` was 657 s.
For the molecule `CCc1nc2ccccc2c(=O)n1Cc1noc(-c2ccc(C#N)cc2)n1`, the RP-LC retention time worked out at 919 s.
The result for `Cc1nc2sccn2c(=O)c1NC(=O)Nc1ccc(C(C)C)cc1` reads 704 s; that for `COc1ccc(NC(=O)CCc2c(C)nn(-c3cc(N(C)C)ncn3)c2C)cc1Cl`, 822 s.
The value for `COCCN1C(=O)[C@H]2CN(Cc3ccc(F)c(F)c3)C[C@H]2C1=O` was 623 s.
The result for `Cc1cc(=O)n(CC(=O)Nc2ccc(C(C)C)cc2)c(N2CCOCC2)n1` reads 774 s; that for `COC(=O)C1=C(C)NC(C)=C(C(=O)OC(C)(C)CN(C)CCC(c2ccccc2)c2ccccc2)C1c1cccc([N+](=O)[O-])c1` (centres undefined), 1010 s.
Consider `O=C(NCc1ccco1)C1CCCN(c2nccnc2Sc2ccccc2)C1` (centres undefined), for which the RP-LC retention time was found to be 880 s.
Turning to `Cn1cc(S(=O)(=O)Nc2ccc(F)c(F)c2)c2cccnc21`, the RP-LC retention time turned out to be 790 s.
The result for `CCn1cc(CCNC(=O)Nc2cc(C)cc(C)c2)c2cccnc21` reads 705 s; that for `Cc1nn(-c2ccccc2)cc1C(=O)N1CCC(CC(=O)NCCc2c[nH]c3ccccc23)CC1`, 751 s.
The value for `COCCn1nnnc1C1CC2(CCOCC2)C(=O)N1CCc1ccc(Cl)cc1` (centres undefined) was 880 s.
The result for `CCc1ccc(Nc2nc(C(=O)NCCc3cccs3)nc3ccccc23)cc1` reads 907 s; that for `O=C(Nc1ccc2c(c1)OCCO2)N1CCCC(c2nnnn2-c2ccccc2)C1` (centres undefined), 792 s; that for `COc1ccc(NC(=O)Cn2cnc3nc(N4CCC(C(=O)NC5CC5)CC4)sc3c2=O)cc1`, 681 s.
`O=c1c2nc(-c3ccc4c(c3)OCO4)cn2ccn1-c1ccc(Cl)cc1` gave an RP-LC retention time of 834 s.
The result for `O=C(Cn1nc2c3ccc(F)cc3ncn2c1=O)Nc1ccc2c(c1)OCO2` reads 707 s; that for `C=CCN(CC=C)C(=O)C1CCN(C(=O)c2cccc(F)c2)CC1`, 1250 s; that for `O=C(Cc1ccccc1Br)N1CCN(c2cc(-c3ccc(F)cc3)[nH]n2)CC1`, 867 s.
The value for `CCOC(=O)C1CCN(S(=O)(=O)c2ccc3c(c2)-c2oncc2CO3)CC1` was 908 s; that for `O=C(NCC1CCOCC1)c1ccc2c(c1)OCO2` was 655 s; that for `COCCn1cc(CCNC(=O)Nc2cccc(F)c2)c2cccnc21` was 732 s.
The result for `CCC(=O)Nc1ccc(CCc2nc3ccc(C(=O)NC(C)CCc4ccccc4)cc3[nH]2)cc1` (centres undefined) reads 714 s.
In turn, `Cc1ccccc1N1CCN(C(=O)c2cn3c(n2)CCCC3)CC1` registered an RP-LC retention time of 668 s.
Turning to `Cc1cc(=O)n(CC(=O)Nc2ccc(F)cc2)c(N2CCCCC2)n1`, the RP-LC retention time came to 635 s.
For the molecule `O=S(=O)(c1cccn2cnnc12)N(Cc1cccc(F)c1)c1ccc(F)c(F)c1`, the RP-LC retention time was 866 s.
`Cc1cnc(C2CC2)n1CCNS(=O)(=O)Cc1ccccc1` registered an RP-LC retention time of 634 s.
The value for `COC(=O)c1ncn2c1C(=O)N(Cc1cccc(Br)c1)C(C)(C(=O)NC1CCCC1)C2` (centres undefined) was 764 s; that for `Cc1cc(=O)c2c(C)ccc(C)c2[nH]1` was 677 s.
The value for `CC(O)c1ccc(-c2ccc(CNCCCn3ccnc3)o2)cc1` (centres undefined) was 513 s; that for `CCOC(=O)c1noc2nc(C)nc(NCCc3ccc(C)cc3)c12` was 1130 s; that for `Cc1c(NC(=O)Nc2c(Cl)cccc2Cl)c(=O)n(-c2ccccc2)n1C` was 751 s.
The result for `Cc1noc(C)c1Cc1c(C(=O)NCC23CCCC=C2NC(=O)CC3)noc1C` (centres undefined) reads 726 s.
The molecule `Cc1nc(-c2nc(-c3cccs3)cs2)cn1CC(=O)Nc1cccc(F)c1` came in with an RP-LC retention time of 814 s.
As to `O=S(=O)(c1ccc2c(c1)-c1oncc1CO2)N1CCCc2ccccc21`, the RP-LC retention time came to 1020 s.
Regarding `Cc1ccc(NC(=O)N2CCC(OC3CCN(S(C)(=O)=O)CC3)CC2)cc1Cl`, the RP-LC retention time was 867 s.
In turn, `COc1cc(CC(=O)N2CCc3cc(-c4csc(C)n4)ccc32)cc(OC)c1` registered an RP-LC retention time of 1020 s.
The result for `O=C(O)c1cc(-c2ccccc2F)n[nH]1` reads 630 s; that for `CCCCc1ccc(N2C(=O)CC(c3ccc(OC)c(OC)c3)CC2=O)cc1`, 1040 s; that for `Cc1ccc2[nH]cc(CCNC(=O)C3CCN(S(=O)(=O)c4ccc5c(ccn5C)c4)CC3)c2c1`, 933 s.
Turning to `Cc1c(NS(=O)(=O)CCOc2ccccc2)c(=O)n(-c2ccccc2)n1C`, the RP-LC retention time is 729 s.
The result for `O=C(NC1CCCCC1)NC1CCN(C(=O)C2CCC2)C1` (centres undefined) reads 680 s; that for `Cc1cccc(CC(=O)NC2CCN(c3cc(-c4cccs4)[nH]n3)C2)c1` (centres undefined), 726 s.

The values above are taken from the METLIN SMRT retention time set (Domingo-Almenara et al. 2019).
